The text below walks through data of patent EP4678638A1, “NEW E3 UBIQUITIN LIGASE LIGAND, PROTEIN DEGRADATION AGENT AND USE THEREOF” (priority 2023, dated 2024).

One assay has as its system H1975. Kind of assay: CCK-8 proliferation, NCI-H1975 (H1975). Conditions: Homo sapiens, NCI-H1975; CCK-8; 96 hours; read-out: Inhibitory activity (IC50) on tumor cell proliferation, H1975. Type of assay: cell-based, Human. In short, it runs like this: (§1)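 Cells seeded, then after 24 h treated with 10 concentrations (top 10 µM, 5-fold serial dilution) for a line-specific time at 37°C, 5% CO2. Viability read by CCK-8; IC50 fitted from growth-inhibition curves.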

For the next assay, the system named is MCF7. Nature of the assay: CCK-8 proliferation, MCF7 (MCF-7). Type of assay: cell-based. Conditions: Homo sapiens, MCF7; CCK-8; read-out: Inhibitory activity (IC50) on tumor cell proliferation, MCF7. In short, it runs like this: as §1
The subject of the next assay is MV-4-11. Kind of assay: CCK-8 proliferation, MV-4-11. Conditions: Homo sapiens, MV4-11; CCK-8; 72 or 96 hours; read-out: Inhibitory activity (IC50) on tumor cell proliferation, MV-4-11. It counts as cell-based, Human. The procedure, abridged:
as §1

Another assay deals with SR. Kind of assay: CCK-8 proliferation, SR. The following applies: Homo sapiens, SR; CCK-8; 72 hours; read-out: Inhibitory activity (IC50) on tumor cell proliferation, SR. Type of assay: cell-based, Human. In short, it runs like this:
as §1

The next assay concerns 22RV1. Kind of assay: CCK-8 proliferation, 22RV1. Type of assay: cell-based. The following applies: Homo sapiens, 96 hours, read-out: Inhibitory activity (IC50) on tumor cell proliferation, 22RV1. On the procedure:
The tumor cells used herein were cultured in a cell culture medium listed in table A1 at 37°C in an incubator with 5% CO2. Prior to experimentation, all cell lines used were correctly identified by STR profiling, and tested negative for mycoplasma contamination using a mycoplasma detection kit through routine screenings. Table A1. Tumor cells and cell culture medium used in the present disclosure
IC50 values of the compounds of the present disclosure (including the compounds in Table 1, and compounds of examples) were measured using the Meilun Cell Counting Kit-8 kit from Dalian Meilun Biotech Co., Ltd. Assay details are as follows: tumor cells were seeded in a 96-well plate at a density listed in Table A2. After 24h, 100 µL of the inoculated cells were treated with 0.5µL of the compounds of the present disclosure (including the compounds in Tables 1 and 2, and compounds of examples) at 10 different successively decreasing concentrations (starting at the highest concentration of 10µM; 5-fold serial dilutions). After the cells were treated with the compounds of the present disclosure for a period of time, the cell viability detection reagent was added to the culture medium for cell viability assessment according to the instructions provided with the CCK-8 kit. […] The growth inhibition of the compounds of the present disclosure on cells was plotted by Prism Graphpad software, and the IC50 values of the compounds of the present disclosure were calculated therefrom. […] Seeding protocol and treatment time for tumor cells

A further assay relates to CCRF-CEM. Nature of the assay: CCK-8 proliferation, CCRF-CEM. The following applies: Homo sapiens, CCRF-CEM; CCK-8; 96 hours; read-out: Inhibitory activity (IC50) on tumor cell proliferation, CCRF-CEM. Type of assay: cell-based, Human. In short, it runs like this:
as §1

The subject of a further assay is Kasumi-1. Nature of the assay: CCK-8 proliferation, Kasumi-1. It counts as cell-based, Human. Conditions: Homo sapiens, Kasumi 1, 72 hours, read-out: Inhibitory activity (IC50) on tumor cell proliferation, Kasumi-1. In short, it runs like this: as §1
For the next assay, the target named is T1, CDK4 (Homo sapiens, UniProt P11802).
T1 construct: evaluate the effects of the compounds of the present disclosure on the expression of target proteins in cells; endogenous in cells; host or cells: MDA-MB-231
Kind of assay: Western blot degradation of CDK4 (MDA-MB-231 Cell). The following applies: Table D3. It counts as cell-based. In short, it runs like this:
(§2)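 Quantification by ImageJ densitometry of Western blot bands: DC50 is the fitted concentration halving band intensity relative to DMSO. Percent remaining uses internal-control normalization, and degradation rate is its complement.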
(In general: In western blotting, separated proteins are transferred to a membrane and probed.)

A further assay deals with T2, CDK6 (Homo sapiens, UniProt Q00534).
T2 construct: evaluate the effects of the compounds of the present disclosure on the expression of target proteins in cells; endogenous in cells; host or cells: MDA-MB-231
Nature of the assay: Western blot degradation of CDK6 (MDA-MB-231 Cell). The following applies: Table D3. It counts as cell-based. The procedure, abridged:
as §2

The next assay concerns MM.1S. Nature of the assay: CCK-8 proliferation, MM.1S. The following applies: Homo sapiens, MM1.S; CCK-8; 72 hours; read-out: Inhibitory activity (IC50) on tumor cell proliferation, MM1S. It counts as cell-based. In short, it runs like this:
as §1

pIC50: −log10 of the molar value.

T2 sequence (Q00534 whole entry): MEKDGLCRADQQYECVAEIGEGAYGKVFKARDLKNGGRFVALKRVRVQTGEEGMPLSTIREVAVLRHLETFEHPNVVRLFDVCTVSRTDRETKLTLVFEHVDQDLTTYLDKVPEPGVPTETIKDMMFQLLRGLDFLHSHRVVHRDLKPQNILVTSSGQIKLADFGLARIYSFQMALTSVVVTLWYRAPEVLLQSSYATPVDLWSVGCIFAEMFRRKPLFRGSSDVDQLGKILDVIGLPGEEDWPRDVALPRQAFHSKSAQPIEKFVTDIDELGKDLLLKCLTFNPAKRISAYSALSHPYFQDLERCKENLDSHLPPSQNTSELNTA
T1 sequence (P11802 whole entry): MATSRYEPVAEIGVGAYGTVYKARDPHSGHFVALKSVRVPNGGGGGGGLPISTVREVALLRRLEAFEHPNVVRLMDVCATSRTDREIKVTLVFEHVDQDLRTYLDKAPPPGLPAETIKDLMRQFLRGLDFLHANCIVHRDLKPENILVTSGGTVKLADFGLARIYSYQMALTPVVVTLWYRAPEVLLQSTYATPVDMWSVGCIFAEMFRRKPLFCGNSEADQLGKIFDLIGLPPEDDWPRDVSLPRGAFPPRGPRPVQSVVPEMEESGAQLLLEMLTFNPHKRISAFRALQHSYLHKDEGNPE

Turning to `Cc1nc2c(F)cc(-c3nc(Nc4ccc(CN5CCN(Cc6ccc(N7CCC(=O)NC7=O)cc6)CC5)cn4)ncc3F)cc2n1C(C)C` [GT-06665, 1-(4-((4-((6-((5-fluoro-4-(4-fluoro-1-isopropyl-2-methyl-1H-benzo[d]imidazol-6-yl)pyrimidin-2-yl)amino)pyridin-3-yl)methyl)piperazin-1-yl)methyl)phenyl)dihydropyrimidine-2,4(1H,3H)-dione], the pIC50 in the assay on H1975 was 6.30 to 7.00; in the assay with MCF7 it was 6.30 to 7.00; in the assay on MV-4-11, 7.30 to 8.00; in the assay on SR, 6.30 to 7.00; in the assay with 22RV1 it was 7.30 to 8.00; in the assay with CCRF-CEM it was 6.00 to 6.30. Also, the pIC50 in the assay on Kasumi-1 is 6.30 to 7.00. Further, on CDK4, the “Degradation of substrate protein CDK4 (substrate protein remaining %)” value is “A (A is defined as 0% ≤ substrate protein remaining % ≤ 80%)”. Besides, the “Degradation of substrate protein CDK6 (substrate protein remaining %)” value at CDK6 is recorded as “A (A is defined as 0% ≤ substrate protein remaining % ≤ 80%)”.
Turning to `Cc1nc2c(F)cc(-c3nc(Nc4ccc(CN5CCN(Cc6cccc(N7CCC(=O)NC7=O)c6)CC5)cn4)ncc3F)cc2n1C(C)C` [GT-06666, 1-(3-((4-((6-((5-fluoro-4-(4-fluoro-1-isopropyl-2-methyl-1H-benzo[d]imidazol-6-yl)pyrimidin-2-yl)amino)pyridin-3-yl)methyl)piperazin-1-yl)methyl)phenyl)dihydropyrimidine-2,4(1H,3H)-dione], the pIC50 in the assay with H1975 is 6.00 to 6.30; in the assay on MCF7, 6.30 to 7.00; in the assay with MV-4-11 it was 7.30 to 8.00; in the assay with SR, 6.30 to 7.00; in the assay with 22RV1 it was 7.00 to 7.30; in the assay with CCRF-CEM, 6.30 to 7.00. The pIC50 in the assay on Kasumi-1 is 6.30 to 7.00; in the assay with MM.1S it was 6.00 to 6.30. The “Degradation of substrate protein CDK4 (substrate protein remaining %)” value on CDK4 was “A (A is defined as 0% ≤ substrate protein remaining % ≤ 80%)”. For the same compound, on CDK6, the “Degradation of substrate protein CDK6 (substrate protein remaining %)” value is listed as “A (A is defined as 0% ≤ substrate protein remaining % ≤ 80%)”.
As for `Cc1nc2c(F)cc(-c3nc(Nc4ccc(N5CCC(N(C)Cc6ccc(C7CCC(=O)NC7=O)cc6)CC5)cn4)ncc3F)cc2n1C(C)C` (stereo not drawn) [GT-06735, 3-(4-(((1-(6-((5-fluoro-4-(4-fluoro-1-isopropyl-2-methyl-1H-benzo[d]imidazol-6-yl)pyrimidin-2-yl)amino)pyridin-3-yl)piperidin-4-yl)(methyl)amino)methyl)phenyl)piperidine-2,6-dione], the pIC50 in the assay with H1975 is 6.30 to 7.00; with MV-4-11 it was 7.30 to 8.00; in the assay on SR it was 7.00 to 7.30; in the assay with 22RV1, 7.30 to 8.00; in the assay on CCRF-CEM, 6.30 to 7.00; with Kasumi-1, 6.30 to 7.00. Moreover, the pIC50 in the assay on MM.1S is 6.30 to 7.00. In addition, the “Degradation of substrate protein CDK4 (substrate protein remaining %)” value on CDK4 is “A (A is defined as 0% ≤ substrate protein remaining % ≤ 80%)”. The “Degradation of substrate protein CDK6 (substrate protein remaining %)” value at CDK6 is “A (A is defined as 0% ≤ substrate protein remaining % ≤ 80%)”.
`Cc1nc2c(F)cc(-c3nc(Nc4ccc(N5CCC(N6CCN(Cc7ccc(N8CCC(=O)NC8=O)cc7)CC6)CC5)cn4)ncc3F)cc2n1C(C)C` [GT-06739, 1-(4-((4-(1-(6-((5-fluoro-4-(4-fluoro-1-isopropyl-2-methyl-1H-benzo[d]imidazol-6-yl)pyrimidin-2-yl)amino)pyridin-3-yl)piperidin-4-yl)piperazin-1-yl)methyl)phenyl)dihydropyrimidine-2,4(1H,3H)-dione]: the pIC50 in the assay with H1975 is 6.30 to 7.00; with MCF7, 7.00 to 7.30; in the assay on MV-4-11, 7.30 to 8.00; with SR, 7.00 to 7.30; in the assay on 22RV1 it was 7.30 to 8.00; with CCRF-CEM, 6.30 to 7.00. Further, the results for the pIC50 in the assay with Kasumi-1 and in the assay on MM.1S were 7.00 to 7.30 and 6.30 to 7.00, respectively. At CDK4, the “Degradation of substrate protein CDK4 (substrate protein remaining %)” value is recorded as “A (A is defined as 0% ≤ substrate protein remaining % ≤ 80%)”. Also, the “Degradation of substrate protein CDK6 (substrate protein remaining %)” value on CDK6 was “B (B is defined as substrate protein remaining % > 80%)”.
For the compound `Cc1nc2c(F)cc(-c3nc(Nc4ccc(N5CCC(N6CCN(Cc7cccc(N8CCC(=O)NC8=O)c7)CC6)CC5)cn4)ncc3F)cc2n1C(C)C` [GT-06740, 1-(3-((4-(1-(6-((5-fluoro-4-(4-fluoro-1-isopropyl-2-methyl-1H-benzo[d]imidazol-6-yl)pyrimidin-2-yl)amino)pyridin-3-yl)piperidin-4-yl)piperazin-1-yl)methyl)phenyl)dihydropyrimidine-2,4(1H,3H)-dione], the pIC50 is 6.30 to 7.00 in the assay with H1975; 7.00 to 7.30 with MCF7; 7.30 to 8.00 in the assay on MV-4-11; 7.30 to 8.00 in the assay on SR; 7.30 to 8.00 with 22RV1; 6.30 to 7.00 in the assay with CCRF-CEM. Moreover, the figures for the pIC50 in the assay on Kasumi-1 and with MM.1S were 7.00 to 7.30 and 6.30 to 7.00, respectively. Besides, at CDK4, the “Degradation of substrate protein CDK4 (substrate protein remaining %)” value is on record as “A (A is defined as 0% ≤ substrate protein remaining % ≤ 80%)”. Further, on CDK6, the “Degradation of substrate protein CDK6 (substrate protein remaining %)” value is recorded as “B (B is defined as substrate protein remaining % > 80%)”.
Take `Cc1nc2c(F)cc(-c3nc(Nc4ccc(N5CCC(N6CCN(Cc7ccc(N8CCC(=O)NC8=O)cn7)CC6)CC5)cn4)ncc3F)cc2n1C(C)C` [GT-06741, 1-(6-((4-(1-(6-((5-fluoro-4-(4-fluoro-1-isopropyl-2-methyl-1H-benzo[d]imidazol-6-yl)pyrimidin-2-yl)amino)pyridin-3-yl)piperidin-4-yl)piperazin-1-yl)methyl)pyridin-3-yl)dihydropyrimidine-2,4(1H,3H)-dione]: the pIC50 in the assay with H1975 was 6.30 to 7.00; in the assay with MCF7, 7.00 to 7.30; in the assay on MV-4-11 it was 7.30 to 8.00; in the assay on SR, 7.30 to 8.00; with 22RV1, 7.30 to 8.00; in the assay with CCRF-CEM it was 7.00 to 7.30. Moreover, the pIC50 in the assay with Kasumi-1 and in the assay on MM.1S was 6.30 to 7.00 each time. The “Degradation of substrate protein CDK4 (substrate protein remaining %)” value on CDK4 is reported as “A (A is defined as 0% ≤ substrate protein remaining % ≤ 80%)”. The “Degradation of substrate protein CDK6 (substrate protein remaining %)” value on CDK6 was “B (B is defined as substrate protein remaining % > 80%)”.
With `Cc1nc2c(F)cc(-c3nc(Nc4ccc(N5CCC(N6CCN(Cc7cccc(NC8CCC(=O)NC8=O)c7)CC6)CC5)cn4)ncc3F)cc2n1C(C)C` (stereo not drawn) [GT-06743, 3-((3-((4-(1-(6-((5-fluoro-4-(4-fluoro-1-isopropyl-2-methyl-1H-benzo[d]imidazol-6-yl)pyrimidin-2-yl)amino)pyridin-3-yl)piperidin-4-yl)piperazin-1-yl)methyl)phenyl)amino)pip eridine-2,6-dione], the pIC50 was 6.30 to 7.00 in the assay on H1975; 6.30 to 7.00 with MCF7; 7.00 to 7.30 in the assay on MV-4-11; 7.00 to 7.30 with SR; 7.30 to 8.00 with 22RV1; 6.30 to 7.00 in the assay with CCRF-CEM. The pIC50 with Kasumi-1 and with MM.1S was 6.30 to 7.00 each time. For the same compound, the “Degradation of substrate protein CDK4 (substrate protein remaining %)” value at CDK4 is listed as “A (A is defined as 0% ≤ substrate protein remaining % ≤ 80%)”. For the same compound, the “Degradation of substrate protein CDK6 (substrate protein remaining %)” value on CDK6 is on record as “B (B is defined as substrate protein remaining % > 80%)”.
Take `Cc1nc2c(F)cc(-c3nc(Nc4ccc(N5CCC(N(C)Cc6ccc(N7CCC(=O)NC7=O)cc6)CC5)cn4)ncc3F)cc2n1C(C)C` [GT-06838, 1-(4-(((1-(6-((5-fluoro-4-(4-fluoro-1-isopropyl-2-methyl-1H-benzo[d]imidazol-6-yl)pyrimidin-2-yl)amino)pyridin-3-yl)piperidin-4-yl)(methyl)amino)methyl)phenyl)dihydropyrimidine-2,4(1H,3H)-dione]: the pIC50 is 6.30 to 7.00 in the assay on H1975; 7.00 to 7.30 with MCF7; 7.30 to 8.00 in the assay with MV-4-11; 7.30 to 8.00 in the assay on SR; 7.30 to 8.00 with 22RV1; 6.30 to 7.00 in the assay with CCRF-CEM. Moreover, the pIC50 with Kasumi-1 is 7.00 to 7.30; in the assay with MM.1S, 6.30 to 7.00. In addition, at CDK4, the “Degradation of substrate protein CDK4 (substrate protein remaining %)” value is recorded as “A (A is defined as 0% ≤ substrate protein remaining % ≤ 80%)”. Further, the “Degradation of substrate protein CDK6 (substrate protein remaining %)” value on CDK6 is “B (B is defined as substrate protein remaining % > 80%)”.
